Experiment: Henry solubility constant Hcp at 298.15 K (mol/(m3 Pa))
Details: reference: Kim and Kim (2014)

Compound	Henry solubility constant Hcp
Cc1ccccc1C [1,2-dimethylbenzene]	0.0019
Cc1cccc(C)c1 [1,3-dimethylbenzene]	0.0013
Cc1ccc(C)cc1 [1,4-dimethylbenzene]	0.0013
CC(C)CO [2-methyl-1-propanol]	0.22
CC(C)CC=O [3-methylbutanal]	0.021
CC(=O)CC(C)C [4-methyl-2-pentanone]	0.039
c1ccccc1 [benzene]	0.0017
CCCC=O [butanal]	0.061
CCCCOC(C)=O [butyl ethanoate]	0.024
C=Cc1ccccc1 [ethenylbenzene]	0.0027
Cc1ccccc1 [methylbenzene]	0.0015
CCCCC=O [pentanal]	0.039

— Sander's compilation of Henry's law constants (doi:10.1016/j.chroma.2014.03.040)
